Measured values as given in patent publication US6777418B2, “Retinoid compounds (I)” (Syntex (U.S.A.) LLC, priority 2000, dated 2004).

Key:
[1] = biological target: T1, RAR α (Homo sapiens, UniProt P10276); test: Ligand binding assay, retinoid receptors (Apfel et al.), RAR alpha; settings: first value of the cell, read-out: IC50 nM (alpha/beta/gamma): alpha
T1 sequence (P10276 1-462): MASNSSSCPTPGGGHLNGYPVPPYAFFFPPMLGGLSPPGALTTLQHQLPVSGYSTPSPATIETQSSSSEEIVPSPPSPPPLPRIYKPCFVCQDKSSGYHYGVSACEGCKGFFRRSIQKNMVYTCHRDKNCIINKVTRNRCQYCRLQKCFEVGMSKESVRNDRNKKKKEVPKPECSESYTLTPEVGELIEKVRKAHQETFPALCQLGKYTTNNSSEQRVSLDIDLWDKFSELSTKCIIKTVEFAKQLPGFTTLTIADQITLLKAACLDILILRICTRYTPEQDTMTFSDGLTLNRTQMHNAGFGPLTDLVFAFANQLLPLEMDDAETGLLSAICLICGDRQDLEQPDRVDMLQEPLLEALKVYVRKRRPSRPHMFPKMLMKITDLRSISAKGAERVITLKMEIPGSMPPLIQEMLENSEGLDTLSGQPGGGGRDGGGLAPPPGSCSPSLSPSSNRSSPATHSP
Description: (§1) The retinoic acid receptor agonist selectivity of a compound of the invention may be determined by using ligand binding assays known to the skilled artisan (Apfel et al., Proc. Natl. Acad. Sci., (1992), 89, 7129; Teng et al., J. Med. Chem., (1997), 40, 2445; Bryce et al., U.S. Pat. No. 5,807,900 which are herein incorporated by reference). Treatment with RAR agonists, particularly RAR γ agonists may promote repair of alveolar matrix and septation, which are in important in treating emphysema. Preferably, compounds of the invention are γ selective agonists that bind to the γ receptor with affinities between about 25 nm and about 1000 nm and show a five to ten fold selectivity over binding to the RAR α receptor. It should be noted that RAR agonists that are not γ selective may be effective in treating emphysema. Transactivation, which is the ability of a retinoid to activate gene transcription when gene transcription is initiated by the binding of a ligand to the particular retinoic acid receptor being tested, may be determined by using methods described in the art (Apfel et al., Proc. Natl. Acad. Sci., (1992), 89, 7129; Bernard et al., Biochem. And Biophys. Res. Comm., (1992), 186, 977 which is herein incorporated by reference.
(§2) The RAR α antagonist selectivity of compounds of the invention was determined by the ligand binding assays described in C. Apfel et al. Proc. Nat. Sci. Acad. (USA), 89:7129-7133 (1992).

[2] = biological target: T2, RAR beta (Homo sapiens, UniProt P10826); test: Ligand binding assay, retinoid receptors (Apfel et al.), RAR beta; settings: second value of the cell, read-out: IC50 nM (alpha/beta/gamma): beta
T2 sequence (P10826 1-455): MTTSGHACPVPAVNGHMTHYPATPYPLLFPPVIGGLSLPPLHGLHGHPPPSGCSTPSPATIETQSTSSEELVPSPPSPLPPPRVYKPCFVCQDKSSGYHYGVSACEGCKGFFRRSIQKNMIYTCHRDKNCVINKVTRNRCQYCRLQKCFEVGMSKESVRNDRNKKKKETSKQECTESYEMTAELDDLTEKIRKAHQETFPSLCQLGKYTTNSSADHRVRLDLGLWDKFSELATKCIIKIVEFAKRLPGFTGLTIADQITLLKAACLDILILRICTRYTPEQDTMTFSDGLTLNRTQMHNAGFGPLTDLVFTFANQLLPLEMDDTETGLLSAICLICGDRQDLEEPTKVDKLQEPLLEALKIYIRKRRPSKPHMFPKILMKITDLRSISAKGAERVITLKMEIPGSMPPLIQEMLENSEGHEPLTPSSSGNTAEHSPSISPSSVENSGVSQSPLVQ
Description: as §1, §2

[3] = biological target: T3, RAR gamma (Homo sapiens, UniProt P13631); test: Ligand binding assay, retinoid receptors (Apfel et al.), RAR gamma; settings: third value of the cell, read-out: IC50 nM (alpha/beta/gamma): gamma
T3 sequence (P13631 1-454): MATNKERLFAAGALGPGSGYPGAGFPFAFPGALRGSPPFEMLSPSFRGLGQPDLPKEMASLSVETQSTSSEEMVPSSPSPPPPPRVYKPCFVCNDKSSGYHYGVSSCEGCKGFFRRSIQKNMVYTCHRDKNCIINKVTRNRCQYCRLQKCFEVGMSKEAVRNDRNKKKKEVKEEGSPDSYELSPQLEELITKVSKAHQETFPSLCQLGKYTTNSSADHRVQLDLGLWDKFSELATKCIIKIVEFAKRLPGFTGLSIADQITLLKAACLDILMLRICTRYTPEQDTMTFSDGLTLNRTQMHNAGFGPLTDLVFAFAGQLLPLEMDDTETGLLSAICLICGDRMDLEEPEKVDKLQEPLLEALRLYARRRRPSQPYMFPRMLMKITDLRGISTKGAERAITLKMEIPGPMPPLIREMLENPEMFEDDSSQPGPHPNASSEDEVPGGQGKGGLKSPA
Description: as §1, §2

| SMILES | melting point [°C] | IC50 [1] [nM] | IC50 [2] [nM] | IC50 [3] [nM] |
| --- | --- | --- | --- | --- |
| COCc1cc2c(cc1/C=C/c1ccc(C(=O)O)cc1)C(C)(C)CCC2(C)C [Compound 1] | 184.2 to 187.9 | 3600 | 1600 | 1700 |
| CCCCSCc1cc2c(cc1/C=C/c1ccc(C(=O)O)cc1)C(C)(C)CCC2(C)C [Compound 2, 4-[(E)-2-(3-Butylthiomethyl-5,5,8,8-tetramethyl-5,6,7,8-tetrahydro-naphthalen-2-yl)vinyl]benzoic acid] |  | 1000 | 320 | 190 |
| CCC(C)CSCc1cc2c(cc1/C=C/c1ccc(C(=O)O)cc1)C(C)(C)CCC2(C)C (centres unmarked) [Compound 3] | 66.1 to 68.5 | 200 | 100 | 260 |
| CC1(C)CCC(C)(C)c2cc(Cn3cccc3)c(/C=C/c3ccc(C(=O)O)cc3)cc21 [Compound 7, 4-[(E)-2-(5,5,8,8-tetramethyl-3-pyrrol-1-ylmethyl-5,6,7,8-tetrahydro-naphthalen-2-yl)vinyl]benzoic acid] | 255.6 to 257.4 | 260 | 140 | 17 |
| CC1(C)CCC(C)(C)c2cc(CSCc3ccco3)c(/C=C/c3ccc(C(=O)O)cc3)cc21 [Compound 8] | 169.7 to 171 | 810 | 450 | 26 |
| COCCCc1cc2c(cc1/C=C/c1ccc(C(=O)O)cc1)C(C)(C)CCC2(C)C [Compound 11, 4-{(E)-2-[3-(3-methoxypropyl}-5,8,8-tetramethyl-5,6,7,8-tetrahydro-naphthalen-2-yl]vinyl}benzoic acid] | 164.7 to 166 | 1800 | 1400 | 210 |
| CC1(C)CCC(C)(C)c2cc(CO)c(/C=C/c3ccc(C(=O)O)cc3)cc21 [Compound 15] |  | 1000 | 1000 | 1800 |
| Cc1cnn(Cc2cc3c(cc2/C=C/c2ccc(C(=O)O)cc2)C(C)(C)CCC3(C)C)c1 [Compound 20] |  | 950 | 620 | 670 |
| Cn1nnnc1SCc1cc2c(cc1/C=C/c1ccc(C(=O)O)cc1)C(C)(C)CCC2(C)C [Compound 25] |  | 190 | 100 | 230 |
